Source: patent US11504385B2, “Proteolysis targeting chimeric molecule, preparation method, and application” (CHINA PHARMACEUTICAL UNIVERSITY, priority 2019, dated 2022)

Experiments:
Format in all cases: cell-based
BCR-ABL fusion protein = target: T1, BCR-ABL fusion protein (Homo sapiens, UniProt P00519+P11274+Q96SW2, E27K); experiment: Immunoblotting, degradation of BCR-ABL protein in K562 cells
T1 construct: By using BCR-ABL and CRBN positive K562 cell lines; endogenous in cells; host or cells: K562
Description: Initially, researchers synthesized a 2C compound (FIG. 2A), which is a small molecule with the shortest joining chain (n=1). By using BCR-ABL and CRBN positive K562 cell lines, degradation of ABL and BCR-ABL proteins in the cells under the action of the compound was tested by immunoblotting. […] Then, the researchers tried to extend the joining chain (increasing the value of n).
(§1) In order to test the degradation effect of the compound 4C on c-ABL and BCR-ABL proteins in K562 cells, the researchers performed an immunoblotting experiment. […] In order to exclude the possibility that the compound 4C affected the ABL gene to generate false positive expression, the researchers used RT-qPCR in K562 cells to study the expression of the ABL gene.
The operation method of the immunoblotting experiment is as follows: […]
The medium was aspirated from the culture; the cells were washed with 1*PBS; and the cells were aspirated.
A weak RIPA lysate (100 μL) was added to lyse the cells for 40 min.
The sample was centrifuged at 13000 rpm, 4° C. for 15 min; 80 μl of supernatant was taken and added to 20 μl of loading buffer; the reaction solution was heated at 100° C. for 8 minutes; and the sample was placed on ice and cooled.
[…] of sample was loaded on 10% SDS-PAGE gel. The sample was transferred to a PVDF membrane by a wet process.
A membrane was placed in 25 ml of blocking buffer and blocked at room temperature for 1 hour.
The membrane and the primary antibody (according to the appropriate dilution and diluent recommended in the product description) were placed in 10 ml of primary antibody dilution buffer, and incubated overnight at 4° C. and gently shaken from time to time.
Anti-rabbit IgG, HRP-linked Antibody (#7074, in a ratio of 1:2000) and anti-biotin, HRP-linked Antibody (#7075, in a ratio of 1:1000-1:3000) are diluted with 10 ml of blocking buffer to detect biotinylated protein standards. The membrane was incubated with the diluent, and gently shaken and incubated at room temperature for 1 hour.
A developer solution and the membrane were incubated together for 1 minute, the excess solution was discarded (the membrane remained moist) and the membrane was exposed.
Next, we tested the difference in the activity of different configurations of compound 4C in degradation of ABL and BCR-ABL proteins. […] The operation method of the immunoblotting experiment is the same as above.

A549 = experiment: Cell viability test (CellTiter-Glo), A549; settings: A549, non-BCR-ABL dependent tumor cell line
Description: (§2) The operation method of the K562 cell viability test is as follows:
(§3) 50 μL of K562, MCF-7, HCT116 and A549 cell suspensions were added to a 96-well plate and incubated for 12 hours. 10 μL of compound was added to the well and incubated for 48 hours. Operation was performed according to a CellTiter-Glo® luminescent cell viability assay kit (Promega). Nonlinear regression analysis data in GraphPad Prism 6 was used.

HCT116 = experiment: Cell viability test (CellTiter-Glo), HCT116; settings: HCT116, non-BCR-ABL dependent tumor cell line
Description: as §2, §3

ABL gene = experiment: RT-qPCR, expression of the ABL gene in K562 cells
From the text: as §1
The operation method of an RT-qPCR experiment is as follows:
According to the related gene information in the NCBI database, the coding sequences were selected, and primers were designed and synthesized by GenScript Biotechnology Corporation under entrustment. The sequences are as follows:
A K562 cell resuspension solution collected in a 1.5 mL centrifuge tube was centrifuged briefly. […] After mixing uniformly, the purity and concentration of the extracted RNA sample were detected using a spectrophotometer. […]
0.2 ml thin-walled PCR tubes were taken and numbered respectively. […] Water was added to each tube to 25 μl and mixed uniformly, and the mixed solutions were placed in an SLAN fluorescent quantitative PCR instrument. After pre-denaturation at 95° C. for 5 min, the mixed solutions were placed at 95° C. for 15 s→65° C. for 35 s (fluorescence detection), for 40 cycles.

K562 cells = experiment: Time-effect experiment, apoptosis of K562 cells; settings: 250 nM, after 48 hours

In the case of `Cc1nc(Nc2ncc(C(=O)Nc3c(C)cccc3Cl)s2)cc(N2CCN(CCCCOc3ccc(/N=N/c4ccc(C(=O)Nc5cccc6c5CN(C5CCC(=O)NC5=O)C6=O)cc4)cc3)CC2)n1` (centres unmarked) [Compound 4C, (E)-N-(2-chloro-6-methylphenyl)-2-((6-(4-(4-(4-((4-((2-(2,6-dioxopiperidin-3-yl)-1-oxoisoindolin-4-yl)carbamoyl)phenyl)diazenyl)phenoxy)butyl)piperazin-1-yl)-2-methylpyrimidin-4-yl)amino)thiazole-5-carboxamide], the “inhibition of expression of BCR-ABL and/or CRBN protein” value (BCR-ABL fusion protein; BCR-ABL and/or CRBN positive leukemia K562 cells, to varying degrees) is reported as “can inhibit the expression”, the “activity in degrading the BCR-ABL fusion protein, compared among the PROTAC molecules” value (BCR-ABL fusion protein; K562 cells) is reported as “best activity” and the “degradation of BCR-ABL fusion protein, dose-effect” value (BCR-ABL fusion protein; K562 cells, 25 nM, 24 hours of incubation) is reported as “slightly degrade”. For the same compound, the “time at which BCR-ABL reached the maximum degradation” value (BCR-ABL fusion protein; K562 cells, 250 nM) was 32 h, the “BCR-ABL level, time-effect” value (BCR-ABL fusion protein; K562 cells, 250 nM, after 4 hours) was “slight decrease” and the “BCR-ABL level, time-effect” value (BCR-ABL fusion protein; K562 cells, 250 nM, after 10 hours) was “significantly degraded”. The “BCR-ABL level, time-effect” value (BCR-ABL fusion protein; K562 cells, 250 nM, after 10 hours, listed as 4C-trans) was “significantly reduced”, the “BCR-ABL fusion protein degraded, time-effect” value (BCR-ABL fusion protein; K562 cells, 250 nM, after 32 hours) was “more than 90%” and the “BCR-ABL degraded, dose-effect” value (BCR-ABL fusion protein; K562 cells, 500 nM, 24 hours of incubation) was “more than 80%”. For the same compound, the “effect on cell viability” value (A549) was “hardly affects”, the “effect on cell viability” value (HCT116) was “hardly affects” and the “mRNA level of the ABL gene, time-effect” value (ABL gene; 500 nm, 48 hours) was “did not significantly decrease”. The “mRNA level of the ABL gene, dose-effect” value (ABL gene; different concentrations, 36 hours, compared with control group) was “did not change significantly” and the “apoptosis of K562 cells” value (K562 cells) was “obvious apoptosis”.
